Experiment [1] addresses T1, CDK2 (Homo sapiens, UniProt P24941).
T1 construct: HEK293 clonal lines with CRISPR KI HiBiT tag on CDK2 proteins; host or cells: HEK293 clonal line with CRISPR knock-in HiBiT on CDK2, stably expressing LgBiT
Nature of the experiment: CDK2 HiBiT assay (degradation, Dmax). The class given is cell-based. To be noted: HEK293 clonal lines with CRISPR KI HiBiT tag on CDK2, stably expressing LgBiT; 24 hours incubation. The method, then: HEK293 clonal lines with CRISPR KI HiBiT tag on CDK2 proteins and stably expressing LgBiT protein were obtained from Promega (Madison, WI). Cells were plated at 5000 cells per well using Multiflo (BioTek) in 384-well white solid bottom plates (Corning, 3570BC) in 25 ul volume in DMEM media (DMEM, high glucose, HEPES, no phenol red (ThermoFisher Scientific, 21063029)) containing 10% FBS (Corning, 35-075-CV), 1% Penicillin/Streptomycin (ThermoFisher Scientific, 15140-122). Cells were incubated for 16 hours at 37° C., 5% CO2. 75 nL of a compound at 30 μM were dosed into the plate using an Echo® 650 liquid handler (Labcyte). Cells were incubated at 37° C., 5% CO2 for 24 hours. 5 ul of HiBiT Lysis Reagent (Promega, N3030) is added using Combi Multidrop (ThermoFisher Scientific), plates are incubated for 15′ at 37° C., 5% CO2 and then signal was read on a Pherastar FSX using “LUM plus” optic module.
Analysis was performed in Scinamic (Scinamic, Cambridge, MA). Luminescence response (R) was calculated by the formula: response=100*(S−N)/(P−N) where S is the signal of the well, N and P the mean negative and positive control values respectively of the same plate. The luminescence response was then fitted in Scinamic using a 3-parameter agonist logistic fit (hillslope=1, EC50>0, top/bottom unconstrained).

Experiment [2] addresses CRBN-DDB1 (Homo sapiens, UniProt Q96SW2). In words: Compound binding to CRBN by HTRF assay. Particulars: CRBN-DDB1 2.5 nM, Cy5-Thalidomide 100 nM probe; Ki from geometric mean of IC50 by Cheng-Prustoff transformation. The method, then:
Compound activity was monitored in a Homogenous Time-Resolved Fluorescence (HTRF) assay using 1-[5-({2-[2-(2-{[2-(2,6-dioxopiperidin-3-yl)-1,3-dioxo-2,3-dihydro-1H-isoindol-4-yl]oxy}acetamido)ethoxy]ethyl}carbamoyl)pentyl]-3,3-dimethyl-2-[(1E,3E)-5-[(2E)-1,3,3-trimethyl-5-sulfo-2,3-dihydro-1H-indol-2-ylidene]penta-1,3-dien-1-yl]-3H-indol-1-ium-5-sulfonate as a fluorescent probe. Biochemical assays were conducted in Greiner white 384 well HiBase plates (Cat. No 784075-25) in 10 μL total volume. A one pot detection solution of CRBN-DDB1 (2.5 nM), Anti-His Terbium Cryptate Gold (1×, PerkinElmer Cat. #: 61HI2TLB), and Cy5-Thalidomide (100 nM, Tenova Cat.: T52461) was prepared in 20 mM HEPES, 20 mM NaCl, 0.2 mM TCEP, 0.2 mM EDTA, and 0.005% Tween20 was dispensed to each assay plate. Compounds were stored in dry, ambient temperatures at 10 mM. A 10-point, 1:3 dilution series was prepared from 10 mM stock concentrations in Echo-compatible LDV plates. 10 nL of each compound dilution series was dispensed into assays wells using an Echo 650 (Labcyte inc. USA). 10 nL of 10 mM Lenalidomide was transferred into the active-control wells for the assay and 10 nL of DMSO was transferred into the neutral-control wells. The assay was then allowed to incubate for 30 min at ambient temperature after transferring compound. Plate measurements were taken on a Pherastar FSX (BMG Labtech, Germany) using the HTRF Red filter (Ex. 337 nm, em1:620 nm, em2:665 nm) (Flashes: 50, Integration time: 60-400 us, Z-height: 10 mm, Ratio-multipler: 10,000). The HTRF signal was then subsequently normalized to the neutral and active controls. Analysis and IC50 values were derived using KNIME analytics (KNIME Zurich) transformation and fitting within Collaborative Drug Discovery (Collaborative Drug Discovery USA). Ki was derived from the geometric mean of the IC50 values using the Cheng-Prustoff transformation.
Background: Time-resolved FRET reads energy transfer from a long-lived donor to a nearby acceptor.

CRBN-DDB1, sequence (Q96SW2 whole entry): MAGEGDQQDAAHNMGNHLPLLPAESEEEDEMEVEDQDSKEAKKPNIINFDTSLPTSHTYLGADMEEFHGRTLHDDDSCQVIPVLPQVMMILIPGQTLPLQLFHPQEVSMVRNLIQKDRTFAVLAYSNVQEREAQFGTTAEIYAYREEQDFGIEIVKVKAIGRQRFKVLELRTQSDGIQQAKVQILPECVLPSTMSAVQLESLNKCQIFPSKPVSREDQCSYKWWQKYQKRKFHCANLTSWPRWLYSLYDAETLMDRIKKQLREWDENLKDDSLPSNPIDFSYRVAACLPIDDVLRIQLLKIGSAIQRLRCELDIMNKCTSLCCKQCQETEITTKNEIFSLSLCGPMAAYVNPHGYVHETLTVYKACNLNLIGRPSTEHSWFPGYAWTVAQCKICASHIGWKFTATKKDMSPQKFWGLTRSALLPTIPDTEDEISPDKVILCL
CRBN-DDB1, sequence (Q16531 whole entry partner): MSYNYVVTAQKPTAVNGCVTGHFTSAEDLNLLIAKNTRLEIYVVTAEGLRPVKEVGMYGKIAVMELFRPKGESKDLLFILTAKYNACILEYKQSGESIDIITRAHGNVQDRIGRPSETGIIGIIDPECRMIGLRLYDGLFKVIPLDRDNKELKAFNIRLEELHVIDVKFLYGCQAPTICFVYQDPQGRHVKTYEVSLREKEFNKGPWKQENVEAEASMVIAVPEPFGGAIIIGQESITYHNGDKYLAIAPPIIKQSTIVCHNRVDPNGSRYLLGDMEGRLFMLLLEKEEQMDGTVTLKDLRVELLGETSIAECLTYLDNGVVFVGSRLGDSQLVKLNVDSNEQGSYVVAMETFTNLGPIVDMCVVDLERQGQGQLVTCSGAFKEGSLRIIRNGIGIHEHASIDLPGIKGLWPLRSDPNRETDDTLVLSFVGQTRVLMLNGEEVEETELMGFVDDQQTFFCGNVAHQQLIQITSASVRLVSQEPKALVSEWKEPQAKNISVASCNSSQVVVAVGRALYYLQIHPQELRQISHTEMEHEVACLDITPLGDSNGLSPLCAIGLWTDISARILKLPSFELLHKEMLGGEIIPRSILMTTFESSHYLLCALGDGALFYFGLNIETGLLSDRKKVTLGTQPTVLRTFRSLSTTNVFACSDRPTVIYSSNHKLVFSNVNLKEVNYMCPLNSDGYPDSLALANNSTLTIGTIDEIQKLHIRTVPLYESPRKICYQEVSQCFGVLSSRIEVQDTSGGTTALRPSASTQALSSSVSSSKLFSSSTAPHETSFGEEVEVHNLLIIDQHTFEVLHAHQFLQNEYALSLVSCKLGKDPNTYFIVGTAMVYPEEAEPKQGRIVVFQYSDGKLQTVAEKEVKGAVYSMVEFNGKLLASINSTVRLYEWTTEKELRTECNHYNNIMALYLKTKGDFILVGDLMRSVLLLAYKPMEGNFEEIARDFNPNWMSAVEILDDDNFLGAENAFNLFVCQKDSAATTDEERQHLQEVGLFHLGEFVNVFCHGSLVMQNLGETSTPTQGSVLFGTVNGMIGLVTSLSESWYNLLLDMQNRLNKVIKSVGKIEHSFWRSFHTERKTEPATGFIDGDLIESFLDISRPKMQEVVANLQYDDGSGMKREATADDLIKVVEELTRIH

`CSc1cccc(COC(=O)NCc2ccc3c(c2)C(=O)N(C2CCC(=O)NC2=O)C3)c1` (stereo not shown) [Compound 35, [3-(methylsulfanyl)phenyl]methyl N-{[2-(2,6-dioxopiperidin-3-yl)-3-oxo-2,3-dihydro-1H-isoindol-5-yl]methyl}carbamate] yielded a Dmax in experiment [1] of 10 to 50%. In experiment [2], the Ki is at most 100 nM.

Compound `CCC(C)(C)c1ccc(COC(=O)NCc2ccc3c(c2)C(=O)N(C2CCC(=O)NC2=O)C3)cc1` (stereo not shown) [Compound 36, [4-(2-methylbutan-2-yl)phenyl]methyl N-{[2-(2,6-dioxopiperidin-3-yl)-3-oxo-2,3-dihydro-1H-isoindol-5-yl]methyl}carbamate] gave a Dmax in experiment [1] of 10 to 50%. Besides, in experiment [2], the Ki was 100 to 1000 nM.

In turn, `O=C1CCC(N2Cc3ccc(CNC(=O)OCc4ccc(C5CCCC5)cc4)cc3C2=O)C(=O)N1` (stereo not shown) [Compound 37, (4-cyclopentylphenyl)methyl N-{[2-(2,6-dioxopiperidin-3-yl)-3-oxo-2,3-dihydro-1H-isoindol-5-yl]methyl}carbamate] yielded a Dmax in experiment [1] of 10 to 50%. The compound also had a Ki in experiment [2] of at most 100 nM.

In experiment [1], `CC(C)Oc1cccc(COC(=O)NCc2ccc3c(c2)C(=O)N(C2CCC(=O)NC2=O)C3)c1` (stereo not shown) [Compound 38, [3-(propan-2-yloxy)phenyl]methyl N-{[2-(2,6-dioxopiperidin-3-yl)-3-oxo-2,3-dihydro-1H-isoindol-5-yl]methyl}carbamate] showed a Dmax of 10 to 50%. Moreover, the Ki in experiment [2] lay in the range of 100 to 1000 nM.

`C#CCOc1ccc(COC(=O)NCc2ccc3c(c2)C(=O)N(C2CCC(=O)NC2=O)C3)cc1` (stereo not shown) [Compound 39, [4-(prop-2-yn-1-yloxy)phenyl]methyl N-{[2-(2,6-dioxopiperidin-3-yl)-3-oxo-2,3-dihydro-1H-isoindol-5-yl]methyl}carbamate]: the Dmax in experiment [1] was in the range of 10 to 50%. The Ki in experiment [2] was at most 100 nM.

Consider `O=C1CCC(N2Cc3ccc(CNC(=O)OCc4ccc(OCC5CC5)cc4)cc3C2=O)C(=O)N1` (stereo not shown) [Compound 40, [4-(cyclopropylmethoxy)phenyl]methyl N-{[2-(2,6-dioxopiperidin-3-yl)-3-oxo-2,3-dihydro-1H-isoindol-5-yl]methyl}carbamate], for which, in experiment [1], the Dmax is 10 to 50%. For the same compound, the inhibitory constant (Ki) in experiment [2] is at most 100 nM.

In turn, `CCOc1ccc(COC(=O)NCc2ccc3c(c2)C(=O)N(C2CCC(=O)NC2=O)C3)c(C)c1` (stereo not shown) [Compound 41, (4-ethoxy-2-methylphenyl)methyl N-{[2-(2,6-dioxopiperidin-3-yl)-3-oxo-2,3-dihydro-1H-isoindol-5-yl]methyl}carbamate] came in with a Dmax in experiment [1] of 10 to 50%. The same compound returned a Ki in experiment [2] of 100 to 1000 nM.

The compound `O=C1CCC(N2Cc3ccc(CNC(=O)OCc4ccc(CC(F)(F)F)cc4)cc3C2=O)C(=O)N1` (stereo not shown) [Compound 42, [4-(2,2,2-trifluoroethyl)phenyl]methyl N-{[2-(2,6-dioxopiperidin-3-yl)-3-oxo-2,3-dihydro-1H-isoindol-5-yl]methyl}carbamate] came in with a Dmax in experiment [1] of 10 to 50%. Moreover, the Ki in experiment [2] is at most 100 nM.

In the case of `CCCc1ccc(COC(=O)NCc2ccc3c(c2)C(=O)N(C2CCC(=O)NC2=O)C3)cc1` (stereo not shown) [Compound 43, (4-propylphenyl)methyl N-{[2-(2,6-dioxopiperidin-3-yl)-3-oxo-2,3-dihydro-1H-isoindol-5-yl]methyl}carbamate], the Dmax in experiment [1] was in the range of 10 to 50%. For the same compound, the Ki in experiment [2] is at most 100 nM.

In turn, `COc1cc(COC(=O)NCc2ccc3c(c2)C(=O)N(C2CCC(=O)NC2=O)C3)ccc1F` (stereo not shown) [Compound 44, (4-fluoro-3-methoxyphenyl)methyl N-{[2-(2,6-dioxopiperidin-3-yl)-3-oxo-2,3-dihydro-1H-isoindol-5-yl]methyl}carbamate] yielded a Dmax in experiment [1] of 10 to 50%. For the same compound, the Ki in experiment [2] is at most 100 nM.

In experiment [1], `CC(C)(C)c1cccc(COC(=O)NCc2ccc3c(c2)C(=O)N(C2CCC(=O)NC2=O)C3)c1` (stereo not shown) [Compound 45, (3-tert-butylphenyl)methyl N-{[2-(2,6-dioxopiperidin-3-yl)-3-oxo-2,3-dihydro-1H-isoindol-5-yl]methyl}carbamate] gave a Dmax of 10 to 50%. The compound further displayed a Ki in experiment [2] of at most 100 nM.

`CC(C)COc1ccc(COC(=O)NCc2ccc3c(c2)C(=O)N(C2CCC(=O)NC2=O)C3)cc1` (stereo not shown) [Compound 46, [4-(2-methylpropoxy)phenyl]methyl N-{[2-(2,6-dioxopiperidin-3-yl)-3-oxo-2,3-dihydro-1H-isoindol-5-yl]methyl}carbamate]: the Dmax in experiment [1] lay in the range of 10 to 50%. In experiment [2], this compound displayed a Ki of 100 to 1000 nM.

In experiment [1], `COc1ccc(COC(=O)NCc2ccc3c(c2)C(=O)N(C2CCC(=O)NC2=O)C3)cc1C(C)C` (stereo not shown) [Compound 47, [4-methoxy-3-(propan-2-yl)phenyl]methyl N-{[2-(2,6-dioxopiperidin-3-yl)-3-oxo-2,3-dihydro-1H-isoindol-5-yl]methyl}carbamate] yielded a Dmax of 10 to 50%. Besides, the Ki in experiment [2] was at most 100 nM.

`O=C1CCC(N2Cc3ccc(CNC(=O)OCc4ccc(C5(F)COC5)cc4)cc3C2=O)C(=O)N1` (stereo not shown) [Compound 48, [4-(3-fluorooxetan-3-yl)phenyl]methyl N-{[2-(2,6-dioxopiperidin-3-yl)-3-oxo-2,3-dihydro-1H-isoindol-5-yl]methyl}carbamate] gave a Dmax in experiment [1] of 10 to 50%. Besides, the Ki in experiment [2] was at most 100 nM.

In experiment [1], `CSc1ccc(COC(=O)NCc2ccc3c(c2)C(=O)N(C2CCC(=O)NC2=O)C3)cc1Cl` (stereo not shown) [Compound 49, [3-chloro-4-(methylsulfanyl)phenyl]methyl N-{[2-(2,6-dioxopiperidin-3-yl)-3-oxo-2,3-dihydro-1H-isoindol-5-yl]methyl}carbamate] yielded a Dmax of 10 to 50%. In experiment [2], this compound yielded a Ki of at most 100 nM.

`O=C1CCC(N2Cc3ccc(CNC(=O)OCc4ccc(C#CC(F)(F)F)cc4)cc3C2=O)C(=O)N1` (stereo not shown) [Compound 50, [4-(3,3,3-trifluoroprop-1-yn-1-yl)phenyl]methyl N-{[2-(2,6-dioxopiperidin-3-yl)-3-oxo-2,3-dihydro-1H-isoindol-5-yl]methyl}carbamate]: the Dmax in experiment [1] was 10 to 50%. Also, in experiment [2], the Ki was in the range of 100 to 1000 nM.

In turn, `O=C1CCC(N2Cc3ccc(CNC(=O)OCc4cccc(-c5ccc(F)cc5)c4)cc3C2=O)C(=O)N1` (stereo not shown) [Compound 51, {4′-fluoro-[1,1′-biphenyl]-3-yl}methyl N-{[2-(2,6-dioxopiperidin-3-yl)-3-oxo-2,3-dihydro-1H-isoindol-5-yl]methyl}carbamate] yielded a Dmax in experiment [1] of 10 to 50%. The compound further had a Ki in experiment [2] of 100 to 1000 nM.

For `Cc1ncsc1-c1ccc(COC(=O)NCc2ccc3c(c2)C(=O)N(C2CCC(=O)NC2=O)C3)cc1` (stereo not shown) [Compound 52, [4-(4-methyl-1,3-thiazol-5-yl)phenyl]methyl N-{[2-(2,6-dioxopiperidin-3-yl)-3-oxo-2,3-dihydro-1H-isoindol-5-yl]methyl}carbamate], the Dmax in experiment [1] fell in the range of 10 to 50%. Besides, in experiment [2], the Ki was at most 100 nM.

For the compound `O=C1CCC(N2Cc3ccc(CNC(=O)OCc4ccc(CN5CCCCC5)cc4)cc3C2=O)C(=O)N1` (stereo not shown) [Compound 53, {4-[(piperidin-1-yl)methyl]phenyl}methyl N-{[2-(2,6-dioxopiperidin-3-yl)-3-oxo-2,3-dihydro-1H-isoindol-5-yl]methyl}carbamate], in experiment [1], the Dmax is at most 10%. Moreover, the Ki in experiment [2] was in the range of 100 to 1000 nM.

Regarding `O=C1CCC(N2Cc3ccc(CNC(=O)OCc4cccc(OCC(F)(F)F)c4)cc3C2=O)C(=O)N1` (stereo not shown) [Compound 54, [3-(2,2,2-trifluoroethoxy)phenyl]methyl N-{[2-(2,6-dioxopiperidin-3-yl)-3-oxo-2,3-dihydro-1H-isoindol-5-yl]methyl}carbamate], in experiment [1], the Dmax is 10 to 50%. Besides, in experiment [2], the Ki was 100 to 1000 nM.

What is called Dmax is the largest share of the target that was removed. Low readings indicate shallow degradation, high ones deep degradation. Broadly, the Ki is a measure of affinity in units of concentration, obtained from inhibition or displacement.

These data come from patent US20240299559A1, “COMPOUNDS THAT MEDIATE PROTEIN DEGRADATION AND METHODS OF USE THEREOF” (Monte Rosa Therapeutics, Inc., priority 2021, published 2024).
